# Assay results reported in publication PMC11195995, “A homogeneous time-resolved fluorescence screen to identify SIRT2 deacetylase and defatty-acylase inhibitors” (PLOS ONE, 2024).
# Entries after “also recorded” stand apart in the source; their conditions may differ. Like-named read-outs stand apart in the source and are kept apart here.
# What was measured:
# [1] = system: acetylated alpha-tubulin in A549 SIRT2-KO cells; test: Immunofluorescence staining of acetylated alpha-tubulin in A549 SIRT2-KO cells; format: cell-based, human; conditions: 100 μM, 6 hours
# SIRT2 [2] = biological target: T1, SIRT2 (Homo sapiens, UniProt Q8IXJ6); test: SIRT2 de-decanoylase activity assay (MALDI-MS, decanoyl-H4K16 peptide); format: biochemical; conditions: 0.2 μM decanoyl-H4K16, 1 mM NAD+
# T1 sequence (Q8IXJ6 34-356): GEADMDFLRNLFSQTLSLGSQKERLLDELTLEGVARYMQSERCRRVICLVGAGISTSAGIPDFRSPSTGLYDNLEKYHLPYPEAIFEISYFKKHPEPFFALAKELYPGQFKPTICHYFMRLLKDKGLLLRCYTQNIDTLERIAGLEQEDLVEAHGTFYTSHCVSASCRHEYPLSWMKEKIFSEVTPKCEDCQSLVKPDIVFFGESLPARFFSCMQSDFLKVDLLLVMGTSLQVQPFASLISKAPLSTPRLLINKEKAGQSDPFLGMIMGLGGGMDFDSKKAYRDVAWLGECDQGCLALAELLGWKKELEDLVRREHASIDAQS
# Experimental: (§1) The enzymatic activity of SIRT2 was measured using a MALDI-MS—based protocol reported previously. Reactions were performed at 37°C for 2.5 min in PBS containing 1 mM DTT and 1 mM of NAD^+. Acylated H4K16 peptides were used as the substrates at the following concentrations: acetyl-H4K16, 4 μM; decanoyl-H4K16, 0.2 μM; dodecanoyl-H4K16, 0.5 μM; myristoyl-H4K16, 0.5 μM. These concentrations correspond to the enzyme’s Km for each substrate under saturating NAD^+ conditions. The enzyme concentration in each reaction was chosen such that 20% or less of the substrate was processed by the enzyme when the reactions were quenched. In dose-response assays showing a reduction in SIRT2 activity by increasing amounts of ligand, the data was fit with standard sigmoidal dose-response curves as we previously described. We report absolute IC50 values from the curves which reflect ligand concentrations that reduce the activity of the enzyme by 50% compared to control (no ligand) samples. Assays measuring the effects of ligand on SIRT1 deacetylase and SIRT6 demyristoylase activities were performed similarly, as previously described.
# SIRT2 [3] = biological target: T1, SIRT2; test: SIRT2 demyristoylase activity assay (MALDI-MS, myristoyl-H4K16 peptide); format: biochemical
# Experimental: as §1
# SIRT6 = SIRT6 (Homo sapiens, UniProt Q8N6T7); test: SIRT6 demyristoylase activity assay; format: biochemical; conditions: 16 μM myristoyl-H4K16, dose-response
# SIRT6, sequence (Q8N6T7 whole entry): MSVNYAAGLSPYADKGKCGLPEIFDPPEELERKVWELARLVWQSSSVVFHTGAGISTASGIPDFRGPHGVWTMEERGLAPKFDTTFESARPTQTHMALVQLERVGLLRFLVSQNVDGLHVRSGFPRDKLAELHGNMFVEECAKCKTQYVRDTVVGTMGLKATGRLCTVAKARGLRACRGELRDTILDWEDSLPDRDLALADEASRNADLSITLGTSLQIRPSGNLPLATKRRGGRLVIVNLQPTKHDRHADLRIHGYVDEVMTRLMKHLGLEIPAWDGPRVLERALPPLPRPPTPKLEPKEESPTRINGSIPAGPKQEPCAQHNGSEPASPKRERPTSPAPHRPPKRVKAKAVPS
# Experimental: as §1
# [4] = biological target: T2, human SIRT2 catalytic domain (6xHis-SUMO-SIRT2) (Homo sapiens, UniProt Q8IXJ6); test: biochemical
# T2 sequence (Q8IXJ6 34-356): T1 sequence (Q8IXJ6 34-356)
# SIRT1 = biological target: T3, SIRT1 (Homo sapiens, UniProt Q96EB6); test: SIRT1 deacetylase activity assay; format: biochemical; conditions: 1 μM acetyl-H4K16
# T3 sequence (Q96EB6 1-747): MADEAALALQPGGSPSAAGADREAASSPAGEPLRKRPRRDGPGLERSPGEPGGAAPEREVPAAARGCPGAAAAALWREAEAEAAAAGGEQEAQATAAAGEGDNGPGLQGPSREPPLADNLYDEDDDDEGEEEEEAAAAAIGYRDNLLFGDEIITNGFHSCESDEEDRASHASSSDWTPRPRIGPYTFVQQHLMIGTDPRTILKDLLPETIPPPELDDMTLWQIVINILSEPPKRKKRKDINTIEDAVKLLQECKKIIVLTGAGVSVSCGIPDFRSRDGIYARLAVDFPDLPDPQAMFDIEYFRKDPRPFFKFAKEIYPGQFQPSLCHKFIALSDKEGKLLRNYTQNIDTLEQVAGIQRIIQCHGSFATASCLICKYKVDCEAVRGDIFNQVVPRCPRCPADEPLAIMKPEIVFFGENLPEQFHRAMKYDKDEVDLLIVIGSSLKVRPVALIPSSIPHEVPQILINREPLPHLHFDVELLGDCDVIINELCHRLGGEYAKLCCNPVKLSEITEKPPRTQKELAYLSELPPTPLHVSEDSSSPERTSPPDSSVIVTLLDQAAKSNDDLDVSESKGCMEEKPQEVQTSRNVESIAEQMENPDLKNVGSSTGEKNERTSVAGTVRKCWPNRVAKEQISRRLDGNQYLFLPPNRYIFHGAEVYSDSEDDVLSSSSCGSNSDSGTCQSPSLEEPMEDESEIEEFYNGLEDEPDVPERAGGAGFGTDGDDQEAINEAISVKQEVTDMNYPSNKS
# Experimental: as §1
# A549 cells = test: Cell viability MTT assay; format: cell-based, human; conditions: 72 hours treatment, concentrations shown in Fig 4F and 4G
# Experimental: 5,000 A549 cells were seeded in a 96-well plate in full DMEM. The total volume in each well was 150 μl, and the DMSO concentration was 0.7%. After this treatment period, 10 μl of MTT reagent was added to each well, then the cells were cultured for 4 hour before adding 100 μl of crystal dissolving solution for another 16 hour incubation (Cayman Chemical, catalog #10009365). The absorbance in each well was measured at 570 nm and was used to determine the cell viability by comparing the absorbance of drug treated cells to control (DMSO treated) cells.
# [5] = system: acetylated alpha-tubulin in A549 cells; test: Immunofluorescence staining of acetylated alpha-tubulin in A549 cells; format: cell-based, human; conditions: 100 μM, 6 hours
# Experimental: 100,000 A549 or A549 SIRT2-KO cells were seeded on a coverslip that was placed in the well of 6-well plate, and the cells were grown overnight in full DMEM. […] The cells were then washed three times with PBS, fixed with 4% paraformaldehyde for 10 min, then washed again three times with PBS. Cells were incubated with 0.2% Triton X-100 for 15 minutes on a shaker followed by three more PBS washes. The cells were then blocked with 2% BSA in PBS for 1 hour at room temperature. […] Slides were imaged using a Keyence BZ-X710 fluorescence microscope with the following filter settings: DAPI, excitation/emission was 300–400 nm/438-484 nm; Alexa Fluor 488, excitation/emission was 448 nm/500-550 nm. All images were obtained under identical conditions, and fluorescence intensities were quantified using Fiji/ImageJ without any manipulation to the images. The fluorescence intensity from at least six cells per coverslip were randomly selected and measured targeting the cytosol (for measuring acetylated alpha-tubulin levels via Alexa Fluor 488) or the nucleus (for measuring nuclear DNA staining via DAPI). Relative fluorescence intensity was calculated as the ratio of Alexa Fluor 488/DAPI intensities. […]
# SIRT2 [6] = biological target: T1, SIRT2; test: SIRT2 binding competition assay using Cy3-myristoyl-H4K16 peptide
# Experimental: Competition assays where Cy3-myristoyl-H4K16 peptide was displaced from SIRT2 by 1 were performed as previously described. Assays were performed in PBS with 1 mM DTT at 23°C in a quartz microcuvette (160 μl assay volume). Briefly, the fluorescence intensity of 50 nM Cy3-myristoyl-H4K16 peptide was measured in the presence of 2.5 μM SIRT2 and increasing amounts of 1 using excitation/emission wavelengths of 535 nm/560 nm. The final DMSO concentration in each measurement was 0.6%. As previously described, displacement of Cy3-myristoyl-H4K16 peptide from SIRT2 by a competitive ligand results in a reduction of its fluorescence.
# (§2) The data from both competition assays show a reduction in probe fluorescence at increasing concentrations of competitor ligands. […] We determined and report absolute IC50 values from the curves which reflect ligand concentrations that reduce the fluorescence by 50% compared to control (no ligand) samples.
# SIRT2 [7] = biological target: T1, SIRT2; test: SIRT2 de-dodecanoylase activity assay (MALDI-MS, dodecanoyl-H4K16 peptide); format: biochemical; conditions: 0.5 μM dodecanoyl-H4K16, 1 mM NAD+
# Experimental: as §1
# SIRT2 [8] = biological target: T1, SIRT2; test: SIRT2 deacetylase activity assay (MALDI-MS, acetyl-H4K16 peptide); format: biochemical
# Experimental: as §1
# SIRT2 [9] = biological target: T1, SIRT2; test: Intact protein MALDI-MS for covalent adduct on SIRT2; conditions: 100 μM ligand, 10 μM SIRT2, 37°C, 30 minutes
# Experimental: (A) MALDI-MS spectra of 10 μM SIRT2 after incubation in PBS with 1% DMSO at 37°C for 30 minutes. (B) MALDI-MS spectra of 10 μM SIRT2 after incubation with 100 μM of 2 in PBS with 1% DMSO at 37°C for 30 minutes. The predicted monoisotopic mass for this SIRT2 protein was 36552 Da, and the predicted average mass was 36576 Da; thus, the main peaks represented +1 ions in the isotopic cluster. […] The intact protein spectra were acquired with a Bruker microflex instrument in linear, positive ion mode using sinapinic acid as the matrix. Sinapinic acid was dissolved in 50% acetonitrile/50% water with 0.1% trifluoroacetic acid, which was also used to dilute protein prior to spotting on the MALDI plate. (TIFF)
# SIRT2 [10] = biological target: T1, SIRT2; test: 1-aminoanthracene binding competition assay, SIRT2 alone
# Experimental: (§3) Competition assays where 1-aminoanthracene was displaced from SIRT2 by 2, 4, 5, and 6 were performed as previously reported where we described its displacement from SIRT2 by 3. The assays were also cuvette-based and performed at 23°C in PBS with 1 mM DTT, and the final DMSO concentration was 0.6%. Briefly, the fluorescence intensity of 100 nM 1-aminoanthracene was measured in the presence of 4 μM SIRT2 and increasing amounts of ligand using excitation/emission wavelengths of 390 nm/520 nm. As previously described, displacement of 1-aminoanthracene from SIRT2 by a competitor results in a reduction of its fluorescence.
# We determined and report absolute IC50 values from the curves which reflect ligand concentrations that reduce the fluorescence by 50% compared to control (no ligand) samples.
# [11] = biological target: SIRT2—decanoyl-peptide complex (Homo sapiens, UniProt Q8IXJ6); test: 1-aminoanthracene binding competition assay, SIRT2—decanoyl-peptide complex
# Experimental: as §3, §2
# SIRT2 [12] = biological target: T1, SIRT2; conditions: read-out: Kd for SIRT2 alone; cited from earlier work
# SIRT2 [13] = biological target: T1, SIRT2; conditions: read-out: Deacetylase IC50; previously published; cited from earlier work
# SIRT2 [14] = biological target: T1, SIRT2; conditions: read-out: IC50 for SIRT2 demyristoylase activity; cited from earlier work
# [15] = biological target: SIRT2—decanoyl peptide complex; set-up: method as in PMID 32941003; conditions: cited from earlier work
smiles,measurement,setting,value
O=c1/c(=C\c2cc(Br)cc(I)c2O)sc2nc3ccccc3n12 [compound 1],level of acetylated alpha-tubulin (immunofluorescence),[1],no effect
same,IC50,SIRT2 [2],8 µM
same,IC50,SIRT2 [3],37 µM
same,effect on the demyristoylase activity of SIRT2,SIRT2 [3]; 50 μM compound,considerably most effective
same,effect on the demyristoylase activity of SIRT6,SIRT6,no effect
same,IC50,[4],6.92 µM
same,IC50,SIRT1,32 µM
same,viability / toxicity in A549 cells (MTT),A549 cells,did not cause toxicity; also recorded: no effect
same,level of acetylated alpha-tubulin (immunofluorescence),[5],significantly increased; also recorded: enhanced fluorescence
same,IC50,"SIRT2 [6]; 50 nM Cy3 peptide, 2.5 μM SIRT2, 23°C, read-out: IC50 for displacement of Cy3-myristoyl-H4K16 peptide from SIRT2",16 µM
same,Kd,SIRT2 [6]; calculated from IC50 of Cy3-myristoyl-H4K16 peptide competition assay,5 µM
same,IC50,SIRT2 [7],39 µM
same,IC50,SIRT2 [8],7 µM
"Oc1ccc(Br)cc1I [compound 2, 4-bromo-2-iodophenol]",covalent reaction with SIRT2 (intact protein mass spectrometry),SIRT2 [9],does not irreversibly attach to SIRT2 or form any type of covalent adduct; also recorded: does not covalently react with SIRT2
same,Demyristoylase IC50,"SIRT2 [3]; 0.5 μM myristoyl-H4K16, 1 mM NAD+, 37°C, absolute IC50, ""no effect"" = 200 μM compound did not significantly affect SIRT2 activity",no effect
same,IC50,"SIRT2 [10]; SIRT2 only, 100 nM 1-aminoanthracene, 4 μM SIRT2",75 µM
same,Kd,SIRT2 [10]; read-out: SIRT2 Kd,68 µM
same,Kd,[11],3 µM
same,IC50,"[11]; SIRT2-decanoyl peptide complex, 100 nM 1-aminoanthracene, 4 μM SIRT2, 10 μM decanoyl-H4K16 peptide",7 µM
same,affinity for SIRT2—decanoyl-peptide complex compared to SIRT2 alone,[11]; stronger for the complex,23 fold
same,IC50,SIRT2 [8],9 µM
"CC(C)c1cccc(C(C)C)c1O [compound 3, 2-6-diisopropylphenol]",Kd,SIRT2 [12],25 µM
same,IC50,SIRT2 [13],140 µM
same,IC50,SIRT2 [14],195 µM
same,Kd,[15],7 µM
